Test results published in patent publication US11332473B2, “Substituted pyrazolo[3,4-d]pyrimidines as Wee1 inhibitors” (NUVATION BIO INC., priority 2019, dated 2022).
pIC50: −log10 of the molar value.

How the values were obtained:
PKMYT1 kinase = PKMYT1 kinase (Homo sapiens (Human), UniProt Q99640); test: PKMYT1 IC50 determination, HotSpot Kinase Assay; format: biochemical; conditions: 10 μM ATP, 33P-ATP, Myelin Basic Protein substrate
Experimental: Inhibition of PKMYT1 kinase activity by test compounds was measured by the HotSpot Kinase Assay at Reaction Biology Corporation (Malvern, Pa.). Briefly, Myelin Basic Protein substrate was prepared in Reaction Buffer (20 mM Hepes (pH 7.5), 10 mM MgCl2, 1 mM EGTA, 0.01% Brij35, 0.02 mg/mL BSA, 0.1 mM Na3VO4, 2 mM DTT, 1% DMSO). PKMYT1 kinase was delivered into the substrate solution and gently mixed. Test compounds in 100% DMSO were added into the kinase reaction mixture by Acoustic technology (Echo550; nanoliter range) and incubated for 20 min at room temperature. ^33P-ATP was delivered into the reaction mixture to initiate the reaction. Reactions were carried out at 10 μM ATP. After a 2 hour incubation at room temperature, kinase activity was detected by P81 filter-binding method. […] A nonlinear regression model with a sigmoidal dose response and variable slope within GraphPad Prism (GraphPad Software, San Diego, Calif.) was used to calculate the IC50 value of individual test compounds.

[1] = system: phospho-CDC2 in A427 cells; test: Phospho-CDC2 (Tyr15) sandwich ELISA in A427 cells; format: cell-based; conditions: Homo sapiens, A-427
Experimental: (§1) Changes in the levels of phospho-CDC2 following treatment of cells with test compounds were assessed by enzyme-linked immunosorbent assay (ELISA). A427 cells or AsPC-1 cells were plated in 6-well plates and cultured for 24 hr to approximately 80-90% confluency. Medium was replaced, and the cells were treated with the vehicle control or the test compound at several different concentrations. After incubation of treated cells in cell culture conditions for a specified time (e.g., 24 hr), cells were rinsed with ice-cold PBS and lysed in 1× cell lysis buffer containing protease inhibitors and phosphatase inhibitors. The cells were scraped from the plate with a cell scraper after a brief incubation on ice and transferred to a centrifuge tube, and then subjected to three freeze-thaw cycles in liquid nitrogen and a 37° C. water bath for further lysis. The lysates were centrifuged to pellet cell debris (using, for example, a 10 min centrifugation of 2000× g at 4° C.) and the supernatants transferred to fresh tubes on ice. The protein concentrations of the samples were estimated by the Bradford method or equivalent. The ELISA was carried out with the PathScan® Phospho-CDC2 (Tyr15) Sandwich ELISA Kit (Cat. #7176, Cell Signaling Technology, Danvers, Mass.) according to the manufacturer's instructions.

WEE1 kinase enzyme = WEE1 kinase enzyme (Homo sapiens (Human), UniProt P30291); test: WEE1 IC50 determination, LanthaScreen Terbium Labeled TR-FRET kinase assay; format: biochemical; conditions: WEE1 enzyme 1 nM, ATP 10 μM
Sequence of WEE1 kinase enzyme (P30291 whole entry): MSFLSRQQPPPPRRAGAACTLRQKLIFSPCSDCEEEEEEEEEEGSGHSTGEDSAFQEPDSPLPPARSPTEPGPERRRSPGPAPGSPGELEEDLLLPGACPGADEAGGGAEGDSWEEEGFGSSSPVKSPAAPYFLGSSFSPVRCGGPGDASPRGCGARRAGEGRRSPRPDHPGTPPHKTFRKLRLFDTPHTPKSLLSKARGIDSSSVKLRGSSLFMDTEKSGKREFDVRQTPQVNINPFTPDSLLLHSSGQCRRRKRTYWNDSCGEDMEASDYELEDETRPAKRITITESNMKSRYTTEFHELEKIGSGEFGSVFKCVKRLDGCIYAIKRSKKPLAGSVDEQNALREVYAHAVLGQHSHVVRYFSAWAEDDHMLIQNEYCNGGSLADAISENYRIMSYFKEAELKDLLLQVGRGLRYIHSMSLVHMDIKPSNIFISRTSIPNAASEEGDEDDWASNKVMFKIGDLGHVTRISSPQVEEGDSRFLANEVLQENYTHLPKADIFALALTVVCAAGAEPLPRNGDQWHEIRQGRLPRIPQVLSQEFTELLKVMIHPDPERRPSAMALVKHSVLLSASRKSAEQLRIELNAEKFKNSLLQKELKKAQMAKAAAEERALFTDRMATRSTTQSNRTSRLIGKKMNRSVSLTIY
Experimental: IC50 values of compounds against WEE1 kinase enzyme were determined by LanthaScreen™ Terbium Labeled TR-FRET assay. Kinase assays were performed in 1X kinase buffer (#PV6135, Invitrogen, Life Technologies Grand Island, N.Y.) where total reaction volume was 10 μL in low-volume 384-well plates (#4511, Corning). Serially diluted compounds (3-fold) were incubated with WEE1 Enzyme (1 nM) (#PR7373A, Invitrogen, Life Technologies, Grand Island, N.Y.) for 10 min; a mixture of ATP (10 μM) (#A1852, Sigma, St. Louis, Mo.) and fluorescent-PolyGT substrate (200 nM) (#PV3610, Invitrogen, Life Technologies Grand Island, N.Y.) was added and incubated in dark at room temperature for 1 h. After 1 h, 10 μL stop solution containing Terbium labeled antibody (4 nM) (#PV3529, Invitrogen, Life Technologies Grand Island, N.Y.) and EDTA (#E5134, Sigma, St. Louis, Mo.) (20 mM) in TR-FRET dilution buffer (#PV3574, Invitrogen, Life Technologies Grand Island, N.Y.) was added. Readings were taken in a Synergy Neo Plate reader (BioTek, Winooski, Vt.) at single excitation of 340 nm and dual emission at 495 nm and 520 nm respectively.
The % activity of test samples was calculated as (Sample−Min)*100/(Max−Min). [Max: DMSO control, complete reaction with enzyme & DMSO and Min: No enzyme & DMSO].

A427 cells = test: Cytotoxicity assay in A427 cell line (resazurin); format: cell-based; conditions: Homo sapiens, A-427; A427 lung epithelial cell line, 72 hr, inhibition of proliferation
Experimental: A427 (HTB-53; ATCC), a lung epithelial cell line, was seeded in medium (MEM, 41090101; Gibco) at a cell count of 1500 cells per 100 μL per well in a 96 well edge plate (167425; ThermoFisher). Cells were allowed to grow at 37° C. for 24 hr in 5% CO2 environment (culture conditions) in a Nuaire incubator (humidified). Serially diluted test compounds (100 μL) within the desired testing concentration ranges were added to the culture plate and the cells were further incubated in culture conditions for 72 hr. The experiment was terminated at the designated incubation time by replacing the medium with 100 μL of 1 mM of resazurin (R7017; Sigma) prepared in culture medium, and the plates were further incubated in culture conditions for 4-6 hr. Fluorescence was recorded using a multimodal plate reader (Biotek Synergy Neo) at an excitation wavelength of 535 nm and emission wavelength of 590 nm to obtain relative fluorescence units. Data were analysed as follows: the background fluorescence (blank containing only medium) value was subtracted from each reading and normalized with the vehicle control (DMSO treated cells) to obtain percent survival/proliferation. Percent survival was subtracted from 100 to get the percent inhibition of proliferation which was used to calculate IC50 values. Potency of compounds in other cell lines (such as A549, AsPc-1, Panc 10.05, A172, U-87MG) may be determined in an analogous manner.

[2] = system: phospho-CDC2 in AsPC-1 cells; test: Phospho-CDC2 (Tyr15) sandwich ELISA in AsPC-1 cells; format: cell-based; conditions: Homo sapiens, ASPC1
Experimental: as §1

Sequence of PKMYT1 kinase (Q99640 whole entry): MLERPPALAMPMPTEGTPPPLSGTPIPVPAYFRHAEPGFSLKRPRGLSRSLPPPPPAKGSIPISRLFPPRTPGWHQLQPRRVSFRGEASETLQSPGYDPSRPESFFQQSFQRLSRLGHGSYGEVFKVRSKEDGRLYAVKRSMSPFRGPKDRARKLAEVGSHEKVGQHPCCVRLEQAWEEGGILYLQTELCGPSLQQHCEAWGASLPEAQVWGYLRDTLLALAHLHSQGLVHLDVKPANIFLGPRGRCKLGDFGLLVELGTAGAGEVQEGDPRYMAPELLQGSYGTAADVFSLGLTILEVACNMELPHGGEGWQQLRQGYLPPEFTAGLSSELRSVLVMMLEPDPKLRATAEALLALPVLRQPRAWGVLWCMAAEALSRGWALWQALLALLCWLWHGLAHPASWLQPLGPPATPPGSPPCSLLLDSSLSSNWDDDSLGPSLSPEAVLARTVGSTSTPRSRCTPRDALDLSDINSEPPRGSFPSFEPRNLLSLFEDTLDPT

Row | Compound | pIC50 (PKMYT1 kinase) | pIC50 [1] | pIC50 (WEE1 kinase enzyme) | pIC50 (A427 cells) | pIC50 [2]
1 | CC(C)n1c(=O)c2cnc(Nc3ccc4c(c3)CCNC4)nc2n1-c1ccc(F)c(C(C)(C)F)n1 [1.1, 1-(5-fluoro-6-(2-fluoropropan-2-yl)pyridin-2-yl)-2-isopropyl-6-((1,2,3,4-tetrahydroisoquinolin-6-yl)amino)-1,2-dihydro-3H-pyrazolo[3,4-d]pyrimidin-3-one] | 5.18 | 6.47 | 8.22 | 5.43 | –
2 | CC(C)(F)c1nc(-n2c3nc(Nc4ccc5c(c4)CCNC5)ncc3c(=O)n2C2CC2)ccc1F [1.2, 2-cyclopropyl-1-(5-fluoro-6-(2-fluoropropan-2-yl)pyridin-2-yl)-6-((1,2,3,4-tetrahydroisoquinolin-6-yl)amino)-1,2-dihydro-3H-pyrazolo[3,4-d]pyrimidin-3-one] | 4.99 | 6.02 | 7.44 | 5.47 | –
3 | CCn1c(=O)c2cnc(Nc3ccc4c(c3)CNCC4)nc2n1-c1cccc(C2(C#N)CC2)n1 [1.38, 1-(6-(2-ethyl-3-oxo-6-((1,2,3,4-tetrahydroisoquinolin-7-yl)amino)-2,3-dihydro-1H-pyrazolo[3,4-d]pyrimidin-1-yl)pyridin-2-yl)cyclopropane-1-carbonitrile] | 6.65 | 6.75 | 8.40 | 6.40 | –
4 | CC(C)n1c(=O)c2cnc(Nc3ccc4c(c3)CCNC4)nc2n1-c1cccc(C2(C#N)CC2)n1 [1.43, 1-(6-(2-isopropyl-3-oxo-6-((1,2,3,4-tetrahydroisoquinolin-6-yl)amino)-2,3-dihydro-1H-pyrazolo[3,4-d]pyrimidin-1-yl)pyridin-2-yl)cyclopropane-1-carbonitrile] | 5.25 | 6.49 | 8.05 | 5.83 | –
5 | CC(C)n1c(=O)c2cnc(Nc3ccc4c(c3)CCNC4(C)C)nc2n1-c1cccc(C2(C#N)CC2)n1 [1.45, 1-(6-(6-(1,1-dimethyl-1,2,3,4-tetrahydroisoquinolin-6-ylamino)-2-isopropyl-3-oxo-2,3-dihydro-1H-pyrazolo[3,4-d]pyrimidin-1-yl)pyridin-2-yl)cyclopropanecarbonitrile] | 5.81 | 7.18 | 8.00 | 5.66 | 6.55
6 | CC(C)n1c(=O)c2cnc(Nc3ccc4c(c3)CCNC4)nc2n1-c1ccc(F)c(C(C)(C)O)n1 [1.249, 1-(5-fluoro-6-(2-hydroxypropan-2-yl)pyridin-2-yl)-2-isopropyl-6-((1,2,3,4-tetrahydroisoquinolin-6-yl)amino)-1,2-dihydro-3H-pyrazolo[3,4-d]pyrimidin-3-one] | 4.70 | 6.64 | 7.80 | 6.23 | –
7 | CC(C)n1c(=O)c2cnc(Nc3ccc4c(c3)CCNC4)nc2n1-c1nc(C(C)(C)C#N)ccc1F [1.321, 2-(5-fluoro-6-(2-isopropyl-3-oxo-6-(1,2,3,4-tetrahydroisoquinolin-6-ylamino)-2,3-dihydro-1H-pyrazolo[3,4-d]pyrimidin-1-yl)pyridin-2-yl)-2-methylpropanenitrile] | 4.95 | – | 7.89 | 5.45 | –
8 | CC(C)n1c(=O)c2cnc(Nc3ccc4c(c3)CNCC4)nc2n1-c1nc(C(C)(C)C)c(Cl)s1 [1.349, 1-(4-(tert-butyl)-5-chlorothiazol-2-yl)-2-isopropyl-6-((1,2,3,4-tetrahydroisoquinolin-7-yl)amino)-1,2-dihydro-3H-pyrazolo[3,4-d]pyrimidin-3-one] | 4.70 | – | 6.42 | 6.31 | –
9 | CC(C)n1c(=O)c2cnc(Nc3ccc4c(c3)CCNC4)nc2n1-c1csc(C2CC2)n1 [1.464, 1-(2-cyclopropylthiazol-4-yl)-2-isopropyl-6-((1,2,3,4-tetrahydroisoquinolin-6-yl)amino)-1,2-dihydro-3H-pyrazolo[3,4-d]pyrimidin-3-one] | 4.54 | – | 7.31 | 4.61 | –
10 | CC(C)n1c(=O)c2cnc(Nc3ccc4c(c3)CNCC4)nc2n1-c1csc(C2CC2)n1 [1.465, 1-(2-cyclopropylthiazol-4-yl)-2-isopropyl-6-((1,2,3,4-tetrahydroisoquinolin-7-yl)amino)-1,2-dihydro-3H-pyrazolo[3,4-d]pyrimidin-3-one] | < 4.52 | – | 7.35 | < 4.52 | –
